Measured values from PMC4919066 (PLoS Pathogens, 2016).
Counter-ions that a name gives are not always drawn.

Assays:
MCMV = MCMV plaque reduction assay in MEFs; type: cell-based, mouse CMV
Experimental: The pp28-luciferase HCMV Towne and a GCV-resistant pp28-luciferase were used. The recombinant viruses express luciferase under the control of the late CMV gene promoter, pp28. Luciferase expression is activated 48–72 hours post infection (hpi). The recombinant viruses provide a highly-sensitive reporter system which correlates with plaque reduction assay. The Towne HCMV strain (ATCC VR-977) was used for plaque reduction, quantitative reverse transcriptase PCR (qRT-PCR), and immunoprecipitation assays. Human herpes virus strains were: luciferase HSV1- KOS/Dlux/oriS [52] and clinical isolates of HSV2. The clinical isolates were provided by the clinical microbiology laboratory with no identifiers that can link to a specific subject. Murid Herpesvirus (MCMV: ATCC VR-1399) was used for infection of mouse embryonic fibroblasts (MEFs) and mice.
Human Foreskin Fibroblasts (HFFs) passage 12–16 (ATCC, CRL-2088) and mouse embryonic fibroblasts (MEFs) passage 9–14 (ATCC, CRL-1658) were grown in Dulbecco's Modified Eagle Medium (DMEM) containing 10% fetal bovine serum (FBS) (Gibco, Carlsbad, CA) in a 5% CO2 incubator at 37°C. Infection with HCMV or HSV was performed in HFFs, and infection with mouse CMV was performed in MEFs. For HCMV, cells were seeded in either a 96-well plate or 100 mm culture plates (Corning Costar, Sigma Aldrich) at 0.5 or 2 million cells /plate. Following 90 minute adsorption, media was removed and cells were washed with PBS. Media containing 4% FBS and compounds were added to each well. Infected treated HFFs were collected at 72 hpi and lysates were assayed for luciferase activity using a luciferase assay kit (Promega, Madison, WI) on GloMax-Multi+ Detection System (Promega). In second cycle assays, supernatants were collected from all conditions of the first cycle at 96 hpi and used for infection of fresh HFFs in 96-well plates. Luciferase activity was measured 72 h following second cycle infection. […] After incubation at 37°C for 10 days (for HCMV), 3 days for MCMV or 2 days (for HSV), the overlay was removed and plaques were counted after crystal violet staining.

HCMV Towne = experiment: Add-on and removal studies, plaque titration; type: cell-based, Human Cytomegalovirus; conditions: supernatants at 72 hpi
Experimental: For time-of-removal studies, medium containing the compounds was removed at 0, 6, 12, 24, 36 and 48 hpi, cells were washed three times with PBS, and drug-free medium was added. Culture supernatants were collected at 72 hpi and titration of infectious virus was performed after 14 days by plaque assay.

in vivo = experiment: in vivo; design: species or system BALB/c mice
Experimental: The dosing solution was prepared in saline with a dosing volume of 10 mL/kg. Blood and tissue samples including liver, lung and spleen were collected at 0, 0.083, 0.25, 0.5, 0.75, 1, 2, 3, 4, 7, 24, 30, 48, 72 and 96 hr. […] Pharmacokinetic parameters (Cmax, Tmax, AUC and t1/2) were calculated with a non-compartmental approach using the Pharsight WinNonLin software (Ver. 6.4). The experimental procedures were approved by the Animal Care and Use Committee of Division of Veterinary Resources, NIH.

[1] = 0.083 h after single oral 0.1 mg/kg, BALB/c mice
[2] = 0.25 h after single oral 0.1 mg/kg, BALB/c mice
[3] = 0.5 h after single oral 0.1 mg/kg, BALB/c mice
[4] = 1 h after single oral 0.1 mg/kg, BALB/c mice
[5] = 2 h after single oral 0.1 mg/kg, BALB/c mice
[6] = 3 h after single oral 0.1 mg/kg, BALB/c mice
[7] = 4 h after single oral 0.1 mg/kg, BALB/c mice
[8] = 7 h after single oral 0.1 mg/kg, BALB/c mice
[9] = 24 h after single oral 0.1 mg/kg, BALB/c mice
[10] = 30 h after single oral 0.1 mg/kg, BALB/c mice
[11] = 48 h after single oral 0.1 mg/kg, BALB/c mice
[12] = 72 h after single oral 0.1 mg/kg, BALB/c mice
[13] = 96 h after single oral 0.1 mg/kg, BALB/c mice

In the case of `CC[C@H]1CN2CCc3cc(OC)c(OC)cc3[C@@H]2C[C@@H]1C[C@H]1NCCc2cc(OC)c(OC)cc21` [emetine, emetine dihydrochloride hydrate], the “MCMV plaque reduction and cell density” value (MCMV; emetine 75 nM, 0.5 and 2 million cells/plate) is reported as “cell-density dependent response”, the EC50 (MCMV; in Mus musculus, MCMV, plaque assay, read-out: Mean EC50 ± SD) is reported as 36 nM and the “anti-HCMV activity when added after infection (add-on)” value (HCMV Towne; addition after 12 h) is reported as “loss of activity against HCMV”. The “time compound is required to fully inhibit HCMV (removal assay)” value (HCMV Towne; plaque assay) was “at least 24 h”, the “LIVER Conc.” value (in vivo; [1]) was 0.007 µmol/kg and the “LIVER Mean Conc.” value (in vivo; [1]) was 3.59 ng/g. For the same compound, the “LUNG Conc.” value (in vivo; [1]) was 0.002 µmol/kg, the “LUNG Mean Conc.” value (in vivo; [1]) was 1.07 ng/g and the “LIVER Conc.” value (in vivo; [2]) was 0.013 µmol/kg. For the same compound, the “LIVER Mean Conc.” value (in vivo; [2]) was 6.18 ng/g, the “LUNG Conc.” value (in vivo; [2]) was 0.003 µmol/kg and the “LUNG Mean Conc.” value (in vivo; [2]) was 1.49 ng/g. The “LIVER Conc.” value (in vivo; [3]) was 0.037 µmol/kg, the “LIVER Mean Conc.” value (in vivo; [3]) was 17.7 ng/g and the “LUNG Conc.” value (in vivo; [3]) was 0.006 µmol/kg. The “LUNG Mean Conc.” value (in vivo; [3]) was 2.90 ng/g, the “SPLEEN Conc.” value (in vivo; [3]) was 0.002 µmol/kg and the “SPLEEN Mean Conc.” value (in vivo; [3]) was 1.12 ng/g. The “LIVER Conc.” value (in vivo; [4]) was 0.117 µmol/kg, the “LIVER Mean Conc.” value (in vivo; [4]) was 56.5 ng/g and the “LUNG Conc.” value (in vivo; [4]) was 0.017 µmol/kg. For the same compound, the “LUNG Mean Conc.” value (in vivo; [4]) was 8.11 ng/g, the “SPLEEN Conc.” value (in vivo; [4]) was 0.012 µmol/kg and the “SPLEEN Mean Conc.” value (in vivo; [4]) was 5.60 ng/g. The “LIVER Conc.” value (in vivo; [5]) was 0.192 µmol/kg, the “LIVER Mean Conc.” value (in vivo; [5]) was 92.2 ng/g and the “LUNG Conc.” value (in vivo; [5]) was 0.020 µmol/kg. For the same compound, the “LUNG Mean Conc.” value (in vivo; [5]) was 9.70 ng/g, the “SPLEEN Conc.” value (in vivo; [5]) was 0.018 µmol/kg and the “SPLEEN Mean Conc.” value (in vivo; [5]) was 8.81 ng/g. The “LIVER Conc.” value (in vivo; [6]) was 0.316 µmol/kg, the “LIVER Mean Conc.” value (in vivo; [6]) was 152 ng/g and the “LUNG Conc.” value (in vivo; [6]) was 0.037 µmol/kg. For the same compound, the “LUNG Mean Conc.” value (in vivo; [6]) was 17.9 ng/g, the “SPLEEN Conc.” value (in vivo; [6]) was 0.032 µmol/kg and the “SPLEEN Mean Conc.” value (in vivo; [6]) was 15.3 ng/g. For the same compound, the “LIVER Conc.” value (in vivo; [7]) was 0.437 µmol/kg, the “LIVER Mean Conc.” value (in vivo; [7]) was 210 ng/g and the “LUNG Conc.” value (in vivo; [7]) was 0.071 µmol/kg. For the same compound, the “LUNG Mean Conc.” value (in vivo; [7]) was 34.2 ng/g, the “SPLEEN Conc.” value (in vivo; [7]) was 0.064 µmol/kg and the “SPLEEN Mean Conc.” value (in vivo; [7]) was 30.6 ng/g. For the same compound, the “LIVER Conc.” value (in vivo; [8]) was 0.527 µmol/kg, the “LIVER Mean Conc.” value (in vivo; [8]) was 253 ng/g and the “LUNG Conc.” value (in vivo; [8]) was 0.097 µmol/kg. The “LUNG Mean Conc.” value (in vivo; [8]) was 46.6 ng/g, the “SPLEEN Conc.” value (in vivo; [8]) was 0.093 µmol/kg and the “SPLEEN Mean Conc.” value (in vivo; [8]) was 44.9 ng/g. For the same compound, the “LIVER Conc.” value (in vivo; [9]) was 0.193 µmol/kg, the “LIVER Mean Conc.” value (in vivo; [9]) was 93.0 ng/g and the “LUNG Conc.” value (in vivo; [9]) was 0.138 µmol/kg. The “LUNG Mean Conc.” value (in vivo; [9]) was 66.1 ng/g, the “SPLEEN Conc.” value (in vivo; [9]) was 0.175 µmol/kg and the “SPLEEN Mean Conc.” value (in vivo; [9]) was 84.3 ng/g. The “LIVER Conc.” value (in vivo; [10]) was 0.174 µmol/kg, the “LIVER Mean Conc.” value (in vivo; [10]) was 83.6 ng/g and the “LUNG Conc.” value (in vivo; [10]) was 0.133 µmol/kg. For the same compound, the “LUNG Mean Conc.” value (in vivo; [10]) was 64.1 ng/g, the “SPLEEN Conc.” value (in vivo; [10]) was 0.193 µmol/kg and the “SPLEEN Mean Conc.” value (in vivo; [10]) was 92.5 ng/g. For the same compound, the “LIVER Conc.” value (in vivo; [11]) was 0.073 µmol/kg, the “LIVER Mean Conc.” value (in vivo; [11]) was 34.9 ng/g and the “LUNG Conc.” value (in vivo; [11]) was 0.078 µmol/kg. For the same compound, the “LUNG Mean Conc.” value (in vivo; [11]) was 37.4 ng/g, the “SPLEEN Conc.” value (in vivo; [11]) was 0.139 µmol/kg and the “SPLEEN Mean Conc.” value (in vivo; [11]) was 66.6 ng/g. The “LIVER Conc.” value (in vivo; [12]) was 0.044 µmol/kg, the “LIVER Mean Conc.” value (in vivo; [12]) was 21.2 ng/g and the “LUNG Conc.” value (in vivo; [12]) was 0.049 µmol/kg. The “LUNG Mean Conc.” value (in vivo; [12]) was 23.7 ng/g, the “SPLEEN Conc.” value (in vivo; [12]) was 0.094 µmol/kg and the “SPLEEN Mean Conc.” value (in vivo; [12]) was 45.2 ng/g. The “LIVER Conc.” value (in vivo; [13]) was 0.028 µmol/kg, the “LIVER Mean Conc.” value (in vivo; [13]) was 13.5 ng/g and the “LUNG Conc.” value (in vivo; [13]) was 0.030 µmol/kg. The “LUNG Mean Conc.” value (in vivo; [13]) was 14.3 ng/g, the “SPLEEN Conc.” value (in vivo; [13]) was 0.058 µmol/kg and the “SPLEEN Mean Conc.” value (in vivo; [13]) was 28.1 ng/g. The half-life (in vivo; male, mouse, in vivo, single oral 0.1 mg/kg, BALB/c mice, read-out: calculated half-life (converted)) was 35 h and the plasma concentrations (in vivo; single oral 0.1 mg/kg, male BALB/c mice, UPLC-MS/MS) was “mostly below the level limit of quantification”.
